Assays:
Format in all cases: functional
[1] = target: Calcium-dependent protein kinase 1 (Plasmodium falciparum, UniProt P62344); test: MMV: CDPK1 Protein kinase inhibition assay using recombinant PfCDPK1, syntide 2 peptide substrate, ATP and KinaseGlo to measure % inhibition at 1 uM MMV box compound.
[2] = target: T1, Calcium-dependent protein kinase 4 (Plasmodium falciparum (isolate 3D7), UniProt Q8IBS5); test: MMV: CDPK4 Protein kinase inhibition assay using recombinant PfCDPK4, syntide2 peptide substrate, ATP and KinaseGlo to measure % inhibition at 1 uM MMV box compound.
T1 sequence (Q8IBS5 whole entry): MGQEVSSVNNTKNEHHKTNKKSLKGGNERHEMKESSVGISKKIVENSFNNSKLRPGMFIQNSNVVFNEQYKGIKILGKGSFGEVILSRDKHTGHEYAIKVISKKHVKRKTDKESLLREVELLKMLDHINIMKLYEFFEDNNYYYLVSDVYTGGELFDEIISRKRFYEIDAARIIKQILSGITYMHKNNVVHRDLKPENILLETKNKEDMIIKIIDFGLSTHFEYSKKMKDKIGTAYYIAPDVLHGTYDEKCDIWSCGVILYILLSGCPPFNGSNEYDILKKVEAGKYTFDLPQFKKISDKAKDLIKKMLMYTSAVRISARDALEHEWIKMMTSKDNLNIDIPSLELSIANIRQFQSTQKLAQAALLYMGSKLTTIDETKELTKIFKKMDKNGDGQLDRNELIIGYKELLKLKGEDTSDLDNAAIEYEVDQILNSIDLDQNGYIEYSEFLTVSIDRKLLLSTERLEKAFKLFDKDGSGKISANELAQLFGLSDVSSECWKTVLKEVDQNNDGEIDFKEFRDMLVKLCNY

[3] = target: T2, Mitogen-activated protein kinase (Plasmodium falciparum, UniProt Q25917); test: Final concentrations were 1 uM ATP, 0.5 mM DTT, 1 mM MgCl2, 0.5 mg/mL BSA, and 10 ug/ml MAP2 in a buffer of 50 mM HEPES (pH 7.0). 0.5 mg/mL histone III-S served as the substrate (13); 100 uM AMP-PNP, an ATP analog, was used as a control inhibitor. Incubation time was 4 hours.
T2 sequence (Q25917 whole entry): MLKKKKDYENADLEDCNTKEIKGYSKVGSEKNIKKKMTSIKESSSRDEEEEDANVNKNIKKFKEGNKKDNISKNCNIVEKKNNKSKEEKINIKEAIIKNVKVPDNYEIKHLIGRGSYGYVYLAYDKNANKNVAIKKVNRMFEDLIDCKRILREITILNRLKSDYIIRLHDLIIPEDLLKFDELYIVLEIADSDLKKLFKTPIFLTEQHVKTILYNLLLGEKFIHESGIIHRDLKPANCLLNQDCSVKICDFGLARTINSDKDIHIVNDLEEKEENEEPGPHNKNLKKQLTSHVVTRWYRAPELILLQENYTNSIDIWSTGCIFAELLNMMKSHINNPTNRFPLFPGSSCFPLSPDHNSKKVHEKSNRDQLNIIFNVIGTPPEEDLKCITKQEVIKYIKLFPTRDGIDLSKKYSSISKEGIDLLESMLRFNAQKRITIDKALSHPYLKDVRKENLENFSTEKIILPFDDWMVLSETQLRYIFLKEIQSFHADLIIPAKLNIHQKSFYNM

Proline--tRNA ligase = target: T3, Proline--tRNA ligase (Plasmodium falciparum (isolate 3D7), UniProt Q8I5R7); test: MMV: ProRS recombinant Plasmodium falciparum Prolyl-tRNA-synthetase, assay with yeast tRNA, ATP, and proline and 3 uM MMV malaria box compound, assay read out with kinase glo as % inhibition.
T3 sequence (Q8I5R7 whole entry): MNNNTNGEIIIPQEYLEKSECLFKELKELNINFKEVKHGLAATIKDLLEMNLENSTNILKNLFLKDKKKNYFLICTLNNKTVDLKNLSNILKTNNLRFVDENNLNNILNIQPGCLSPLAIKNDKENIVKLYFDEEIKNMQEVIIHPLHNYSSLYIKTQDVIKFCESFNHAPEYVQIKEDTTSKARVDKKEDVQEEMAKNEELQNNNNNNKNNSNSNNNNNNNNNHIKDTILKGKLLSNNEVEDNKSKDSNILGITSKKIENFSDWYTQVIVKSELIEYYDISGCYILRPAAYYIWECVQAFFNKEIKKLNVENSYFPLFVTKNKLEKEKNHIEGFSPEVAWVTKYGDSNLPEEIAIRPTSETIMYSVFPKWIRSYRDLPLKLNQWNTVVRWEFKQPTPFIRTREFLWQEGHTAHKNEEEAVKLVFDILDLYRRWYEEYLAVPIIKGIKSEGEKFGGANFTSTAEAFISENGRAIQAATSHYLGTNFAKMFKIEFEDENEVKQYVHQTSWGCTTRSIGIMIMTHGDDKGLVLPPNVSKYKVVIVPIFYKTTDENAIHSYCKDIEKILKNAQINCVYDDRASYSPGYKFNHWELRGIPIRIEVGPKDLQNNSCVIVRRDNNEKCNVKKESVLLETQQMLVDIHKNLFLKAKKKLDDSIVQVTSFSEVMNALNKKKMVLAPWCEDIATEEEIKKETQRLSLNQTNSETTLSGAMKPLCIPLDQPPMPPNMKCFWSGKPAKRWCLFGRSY

Lysine--tRNA ligase = Lysine--tRNA ligase (Plasmodium falciparum (isolate 3D7), UniProt Q8IDJ8); test: MMV: KRS recombinant Plasmodium falciparum Lysyl-tRNA-synthetase, assay with yeast tRNA, ATP, and lysine and 3 uM MMV malaria box compound, assay read out with kinase glo as % inhibition.
Sequence of Lysine--tRNA ligase (Q8IDJ8 whole entry): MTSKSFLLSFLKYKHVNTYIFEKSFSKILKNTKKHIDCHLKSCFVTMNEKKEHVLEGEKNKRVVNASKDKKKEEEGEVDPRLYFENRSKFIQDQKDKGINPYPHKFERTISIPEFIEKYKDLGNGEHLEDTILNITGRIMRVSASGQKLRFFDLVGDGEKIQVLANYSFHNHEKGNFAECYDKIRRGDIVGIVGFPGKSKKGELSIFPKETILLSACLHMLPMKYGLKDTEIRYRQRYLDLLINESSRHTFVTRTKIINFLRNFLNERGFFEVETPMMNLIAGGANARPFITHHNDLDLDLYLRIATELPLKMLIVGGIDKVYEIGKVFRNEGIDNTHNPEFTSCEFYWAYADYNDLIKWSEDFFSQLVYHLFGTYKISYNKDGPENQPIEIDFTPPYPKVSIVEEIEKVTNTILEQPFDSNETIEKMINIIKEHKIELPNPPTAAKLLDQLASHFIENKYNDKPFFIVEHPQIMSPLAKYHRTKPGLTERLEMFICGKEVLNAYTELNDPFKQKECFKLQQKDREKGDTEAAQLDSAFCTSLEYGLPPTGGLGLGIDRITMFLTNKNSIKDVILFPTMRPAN

[4] = target: T4, Putative uncharacterized protein pk7 (Plasmodium falciparum, UniProt O96214); test: Final concentrations were 1 uM ATP, 2 mM DTT, 20 mM MgCl2, 2 mM MnCl2, 0.01% BSA, and 6 ug/ml PK7, in a buffer of 20 mM Tris-HCl (pH 7.5). The enzyme itself was the only substrate present (since autophosphorylation occurs); 100 uM 1NA-PP1 was used as a control inhibitor. Incubation time was 3 hours.
T4 sequence (O96214 whole entry): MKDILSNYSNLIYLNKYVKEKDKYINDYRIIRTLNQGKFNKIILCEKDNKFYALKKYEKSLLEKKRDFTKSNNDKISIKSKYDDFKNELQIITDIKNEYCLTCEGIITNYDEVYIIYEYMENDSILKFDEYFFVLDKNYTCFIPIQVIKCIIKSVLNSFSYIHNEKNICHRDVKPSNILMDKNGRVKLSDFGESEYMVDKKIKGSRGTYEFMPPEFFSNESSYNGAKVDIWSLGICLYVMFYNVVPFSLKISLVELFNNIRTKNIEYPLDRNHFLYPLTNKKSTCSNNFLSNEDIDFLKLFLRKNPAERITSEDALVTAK

[5] = target: T5, Cdk-related protein kinase 6 (Plasmodium falciparum, UniProt O77239); test: Final concentrations were 1.5 uM ATP, 5 mM MnCl2, and 15 ug/ml PK6 in a buffer of 100 mM Tris-HCl (pH 7.5). 50 ug/mL MBP was provided as the substrate; 10 uM staurosporine was used as a control inhibitor. Incubation time was 3 hours and 40 minutes.The catalytic activity of each kinase was considered proportional to ATP consumed, as determined from measurements of residual [ATP] with the luciferase-based reagent Kinase-Glo (Promega) following incubation. Luminescence (proportional to residual [ATP]) was measured on the plate readers FLx800 (BioTek Instruments, Winooski, VT, USA) and MicroBeta2.
T5 sequence (O77239 whole entry): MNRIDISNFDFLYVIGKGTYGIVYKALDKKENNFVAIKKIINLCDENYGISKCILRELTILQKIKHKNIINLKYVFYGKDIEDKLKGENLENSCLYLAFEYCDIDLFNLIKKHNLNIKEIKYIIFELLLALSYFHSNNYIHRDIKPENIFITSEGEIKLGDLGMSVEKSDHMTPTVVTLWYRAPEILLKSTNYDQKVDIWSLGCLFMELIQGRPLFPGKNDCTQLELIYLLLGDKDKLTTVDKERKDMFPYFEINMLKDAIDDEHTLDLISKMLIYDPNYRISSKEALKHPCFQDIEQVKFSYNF

Sequence of Calcium-dependent protein kinase 1 (P62344 whole entry): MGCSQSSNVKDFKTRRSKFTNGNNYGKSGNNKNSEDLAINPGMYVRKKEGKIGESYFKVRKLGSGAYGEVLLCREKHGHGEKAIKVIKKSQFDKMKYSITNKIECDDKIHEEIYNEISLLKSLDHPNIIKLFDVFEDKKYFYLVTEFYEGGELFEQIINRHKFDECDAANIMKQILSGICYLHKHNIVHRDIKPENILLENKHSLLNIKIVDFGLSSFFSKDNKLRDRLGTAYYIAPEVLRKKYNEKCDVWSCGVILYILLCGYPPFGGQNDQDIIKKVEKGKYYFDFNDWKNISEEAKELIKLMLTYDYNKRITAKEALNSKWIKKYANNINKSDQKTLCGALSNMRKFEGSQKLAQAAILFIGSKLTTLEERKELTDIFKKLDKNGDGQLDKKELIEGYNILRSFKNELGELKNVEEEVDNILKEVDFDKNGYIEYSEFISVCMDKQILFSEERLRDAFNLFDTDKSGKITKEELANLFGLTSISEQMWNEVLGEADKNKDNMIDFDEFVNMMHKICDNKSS

Compound	IC50 [1] [nM]	IC50 [2] [nM]	IC50 [3] [nM]	IC50 (Proline--tRNA ligase) [nM]	IC50 (Lysine--tRNA ligase) [nM]	IC50 [4] [nM]	IC50 [5] [nM]
CC(O)(c1ccc(Cl)cc1)C(CN1CCCCC1)c1ccccc1 (configuration not stated)	> 1000	> 1000	> 1000	> 2500	> 2500	> 1000	> 1000
C=C(C)CCC(C)N1CCC(N2CCC(C(=O)NCCc3ccccc3)CC2)CC1 (configuration not stated)	> 1000	> 1000	> 1000	> 2500	> 2500	> 1000	> 1000
COc1ccc(C2=C(c3ccc(OC)cc3)C3(c4ccccc4)C(=O)C2(c2ccccc2)C2C(=O)N(c4ccc(C)cc4)C(=O)C23)cc1 (configuration not stated)	> 1000	> 1000	> 1000	> 2500	> 2500	> 1000	> 1000
CCOc1ccccc1CN1CCc2nc3cc(C(C)(C)C)nn3c(O)c2C1	> 1000	> 1000	> 1000	> 2500	> 2500	> 1000	> 1000
CN(C)c1ccc(-c2nc3cc(N)ccc3[nH]2)cc1	> 1000	> 1000	> 1000	> 2500	> 2500	> 1000	> 1000
CCCC(c1nnnn1C1CCCCC1)N1CCN(C(=O)c2ccco2)CC1 (configuration not stated)	> 1000	> 1000	> 1000	> 2500	> 2500	> 1000	> 1000
CCCCc1ccc(NS(=O)(=O)c2cc3c4c(c2)CCN4C(=O)CC3)cc1	> 1000	> 1000	> 1000	> 2500	> 2500	> 1000	> 1000
COc1ccc(N2CCN(C(CNC(=O)C3CCCCC3)c3ccc4c(c3)OCO4)CC2)cc1 (configuration not stated)	> 1000	> 1000	> 1000	> 2500	> 2500	> 1000	> 1000
Cc1ccc(F)cc1NC(=O)c1cc(Cl)ccc1Nc1ccccc1	> 1000	> 1000	> 1000	> 2500	> 2500	> 1000	> 1000
CSc1ccccc1C(=O)Nc1nc(-c2ccccn2)cs1	> 1000	> 1000	> 1000	> 2500	> 2500	> 1000	> 1000
COC(=O)c1ccc(C2C3=C(O)CC(c4ccc(F)cc4)CC3=Nc3ccccc3N2C(=O)c2ccccc2)cc1 (configuration not stated)	> 1000	> 1000	> 1000	> 2500	> 2500	> 1000	> 1000
Cc1ccc(C2CC(C(F)(F)F)n3nc(C(=O)N4CCN(C(c5ccccc5)c5ccccc5)CC4)cc3N2)cc1 (configuration not stated)	> 1000	> 1000	> 1000	> 2500	> 2500	> 1000	> 1000
CCN(CC)c1cc(C)c2cc(NC(=O)c3cccc(OC)c3)ccc2n1	> 1000	> 1000	> 1000	> 2500	> 2500	> 1000	> 1000
CCOc1ccc(N2C(N)=NC(N)=NC2(C)C)cc1	> 1000	> 1000	> 1000	> 2500	> 2500	> 1000	> 1000
CCOc1cc(Cl)c(C(C)NC(=O)c2ccccc2)cc1OCC (configuration not stated)	> 1000	> 1000	> 1000	> 2500	> 2500	> 1000	> 1000
CC(=O)c1sc(NC(=O)Nc2ccc(C)cc2C)nc1C	> 1000	> 1000	> 1000	> 2500	> 2500	> 1000	> 1000
COc1ccc(Nc2nc(NCc3ccccc3)c3ccccc3n2)cc1	> 1000	> 1000	> 1000	> 2500	> 2500	> 1000	> 1000
Cc1ccc(Cn2c(N3CCC(C(=O)NCc4cccs4)CC3)nc3ccccc32)cc1	> 1000	> 1000	> 1000	> 2500	> 2500	> 1000	> 1000
Cc1cccc(-n2ncc3c(O)nc(-n4nc(C)cc4NC(=O)c4cc5ccccc5o4)nc32)c1	> 1000	> 1000	> 1000	> 2500	> 2500	> 1000	> 1000
COCCn1c(C)nc2ccccc2c1=O	> 1000	> 1000	> 1000	> 2500	> 2500	> 1000	> 1000
COc1cc(-c2nc(-c3ccc(Sc4ccccc4)cc3)c(-c3ccccc3)[nH]2)cc(OC)c1O	> 1000	> 1000	> 1000	> 2500	> 2500	> 1000	> 1000

Reference: ChEMBL document CHEMBL3301562, “MMV Box screening against Plasmodium falciparum protein kinases and aminoacyl tRNA synthetases”
